From patent publication US5665555A, “Method of determining the effect of a test substance on a clone of a Centroptilum triangulifer mayfly” (priority 1993, dated 1997)
Entries after “also recorded” stand apart in the source; their conditions may differ.

Tested on: adult C. triangulifer
Test: Chlordane residue (body burden), relative composition and metabolism in adult C. triangulifer by ECNI-MS
Assay type: in vivo, Centroptilum triangulifer (WCC 2 clone)
Conditions: for metabolism by C. triangulifer: 4.3 μg/l technical chlordane; for bioaccumulation in C. triangulifer: in vivo; for relative composition of principal chlordane components or metabolites in mayflies: reared at 4.3 μg/l chlordane; for amount of cis- and trans-chlordane relative to the nonachlors in C. triangulifer: compared to original distribution in technical chlordane
Experimental: Surviving C. triangulifer individuals from the various controls and treatment groups were collected daily as subimagos (pre-adults) from emergence cages. Most subimagos emerging from a given vessel were immediately killed, measured, dried, and weighed. The viability of eggs obtained from females that had been chronically exposed as larvae to the various control and treatment conditions was also assessed. Thus, a few subimagos from certain treatments were kept alive for 24 h (n=8, 5, 8, 6, 10, and 6 for the 4.3, 9.4, 15.4, 27.4, and 56.3 μg/l and control groups, respectively), during which time they molted to the adult stage and were allowed to oviposit into individual glass jars for assessing hatch success as described above. A few adults from the 4.3 μg/l group were frozen intact at […] for later analysis for chlordane residue by electron capture negative ionization mass spectrometry (ECNI-MS). Chiordane residue in adults reared as larvae in 0.005, 0.05, and 0.5 μg/l treatments was also determined.
Chlordane was extracted from water samples by liquid-liquid extraction in a separatory funnel with three aliquots of hexane. PCB204 (2,2',3,4,4',5,6,6'-octachlorobiphenyl) was added as a surrogate standard before extraction. Each hexane aliquot was rinsed into the plastic sample bottle after transfer of the water sample and before its addition to the separatory funnel containing the water sample to ensure removal of chlordane adsorbed on the walls. The three hexane aliquots were combined and evaporated with a rotary evaporator and then further evaporated down to 100 μl under nitrogen for the final step. Chlordane components and metabolites were quantified from the relative responses of the surrogate standard and the authentic standards of heptachlor; trans- and cis-chlordane; trans- and cis-nonachlor; and the two metabolites, heptachlor epoxide and oxychlordane (n.b. cis-nonachlor was estimated from the response factor for trans-nonachlor). Adult body burdens and water concentrations of chlordane residue were calculated by comparison of the component areas with that of the surrogate standard to correct for losses during extraction and purification.
Adult mayflies from a given replicate vessel per treatment were dried and combined in lots of five to thirteen organisms for extraction and analysis. The mayflies were ground in 0.5 ml methanol after addition of the surrogate standard PCB204 and extracted by sonication with two 10 ml aliquots of a 1:1 methanol:methylene chloride mixture. Extracts were filtered through pasteur pipettes loaded with approximately 1.0 g of Na2 SO4 and clean glass wool. Chlordane components and the surrogate standard were separated from other components in the extract on 1% deactivated silica (0.8 g) microcolumns (organochlorines were eluted with 20% methylene chloride in hexane).
Five principal chlordane components and two metabolites (heptachlor, cis- and trans-chlordane, cis- and trans-nonachlor, heptachlor epoxide, and oxychlordane) were identified and quantified by ECNI-MS, using a Hewlett Packard 5988/RTE-A mass spectrometer equipped with a Hewlett Packard 5890 GC. Instrumental conditions were: GC -0.25 mm, 30 m DB-5 column (J & W Scientific) held at 60° C. for 2 min, then ramped to 180° C. at 20°/min, to 230° C. at 2°/min, to 280° C. at 10°/min, and then held at 280° C. for 10 min; MS-CH4 pressure 0.45 torr, source temperature 100° C.

ClC1=C(Cl)C2(Cl)C3C(Cl)C=CC3C1(Cl)C2(Cl)Cl (stereo not drawn) [heptachlor]
metabolism by C. triangulifer: completely metabolize

ClC1=C(Cl)C2(Cl)C3C4OC4C(Cl)C3C1(Cl)C2(Cl)Cl (stereo not drawn) [heptachlor epoxide]
bioaccumulation in C. triangulifer: clear trend for the C. triangulifer mayfly to bioaccumulate | relative composition of principal chlordane components or metabolites in mayflies: 18±7%

ClC1=C(Cl)[C@]2(Cl)[C@@H]3C[C@@H](Cl)[C@@H](Cl)[C@@H]3[C@@]1(Cl)C2(Cl)Cl (relative stereo) [cis-chlordane]
metabolism by C. triangulifer: metabolized in part to oxychlordane; also recorded: capable of metabolizing or excreting both isomers equally | amount of cis- and trans-chlordane relative to the nonachlors in C. triangulifer: Reduced quantities | relative composition of principal chlordane components or metabolites in mayflies: 4±3%

ClC1=C(Cl)[C@]2(Cl)[C@@H]3[C@@H](Cl)[C@H](Cl)[C@@H](Cl)[C@@H]3[C@@]1(Cl)C2(Cl)Cl [trans-nonachlor]
metabolism by C. triangulifer: poorly metabolized | bioaccumulation in C. triangulifer: clear trend for the C. triangulifer mayfly to bioaccumulate | ratio of trans-nonachlor to cis-nonachlor in C. triangulifer (range): 6.2-8.6 | relative composition of principal chlordane components or metabolites in mayflies: 45±11%

ClC1=C(Cl)[C@]2(Cl)[C@@H]3C[C@H](Cl)[C@@H](Cl)[C@@H]3[C@@]1(Cl)C2(Cl)Cl (relative stereo) [trans-chlordane]
metabolism by C. triangulifer: metabolized in part to oxychlordane; also recorded: capable of metabolizing or excreting both isomers equally | amount of cis- and trans-chlordane relative to the nonachlors in C. triangulifer: Reduced quantities | relative composition of principal chlordane components or metabolites in mayflies: 5±3%

ClC1=C(Cl)[C@]2(Cl)[C@@H]3[C@@H](Cl)[C@@H](Cl)[C@@H](Cl)[C@@H]3[C@@]1(Cl)C2(Cl)Cl [cis-nonachlor]
metabolism by C. triangulifer: poorly metabolized | bioaccumulation in C. triangulifer: clear trend for the C. triangulifer mayfly to bioaccumulate | relative composition of principal chlordane components or metabolites in mayflies: 6±2%

ClC1=C(Cl)[C@]2(Cl)[C@H]3[C@H]([C@@H](Cl)[C@]4(Cl)O[C@H]34)[C@@]1(Cl)C2(Cl)Cl [oxychlordane]
bioaccumulation in C. triangulifer: clear trend for the C. triangulifer mayfly to bioaccumulate | relative composition of principal chlordane components or metabolites in mayflies: 21±13%
